Laboratory results as given in paper PMC5513037, “Examining the influence of specificity ligands and ATP-competitive ligands on the overall effectiveness of bivalent kinase inhibitors” (Proteome Science, 2017).

Columns and labels:
Assay in all cases: KAM-matrix competition in K562 lysate
Assay type in all cases: binding
[1] = biological target: T1, GSK3B (Homo sapiens, UniProt P49841)
T1 construct: endogenous in cells; host or cells: K562
Procedure: (§1) For synthesis of KAM-derivatized resin, packed NHS-activated sepharose 4 fast flow resin (volume = 2 mL; GE Healthcare) was washed with anhydrous DMSO (3 × 10 mL). To the washed NHS-activated sepharose resin was added 0.5 mM KAM in anhydrous DMSO (8 mL; 2 μmol compound/mL of resin), followed by the addition of triethylamine (30 μL). The reaction mixture was vortexed to mix and pelleted by centrifugation (100 x g, 2 min). An aliquot of the supernatant (50 μL) was saved for LC/MS analysis. The reaction mixture was allowed incubate overnight at room temp with end-over-end rotating agitation. On the following day, the reaction mixture was pelleted by centrifugation (100 x g, 2 min). An aliquot of the supernatant (50 μL) was saved for LC/MS analysis. […] 2-(2-Aminoethoxy)ethanol (100 μL; Sigma-Aldrich) was added to the reaction mixture, vortexed, and incubate overnight at room temp with end-over-end agitation. The KAM-derivatized resin was then washed with anhydrous DMSO (3 × 10 mL) and 95% EtOH (3 × 10 mL).
(§2) Data were visualized for further analysis using Spotfire DXP.

[2] = biological target: T2, GSK3A (Homo sapiens, UniProt P49840)
T2 construct: endogenous in cells; host or cells: K562
T2 sequence (P49840 whole entry): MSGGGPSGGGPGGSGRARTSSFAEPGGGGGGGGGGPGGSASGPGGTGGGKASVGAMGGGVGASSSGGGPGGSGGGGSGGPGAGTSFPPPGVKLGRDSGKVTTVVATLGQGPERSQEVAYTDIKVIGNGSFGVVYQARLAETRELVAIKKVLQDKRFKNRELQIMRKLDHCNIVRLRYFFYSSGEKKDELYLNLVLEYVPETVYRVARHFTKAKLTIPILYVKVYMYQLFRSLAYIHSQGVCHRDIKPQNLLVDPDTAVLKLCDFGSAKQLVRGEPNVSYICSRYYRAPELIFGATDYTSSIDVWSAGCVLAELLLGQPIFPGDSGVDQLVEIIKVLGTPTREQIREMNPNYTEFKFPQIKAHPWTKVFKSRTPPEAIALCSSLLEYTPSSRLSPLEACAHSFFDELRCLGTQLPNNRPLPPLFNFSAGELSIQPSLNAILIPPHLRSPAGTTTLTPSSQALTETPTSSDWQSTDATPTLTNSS
Procedure: as §1, §2

[3] = biological target: T3, NEK9 (Homo sapiens, UniProt Q8TD19)
T3 construct: endogenous in cells; host or cells: K562
T3 sequence (Q8TD19 1-979): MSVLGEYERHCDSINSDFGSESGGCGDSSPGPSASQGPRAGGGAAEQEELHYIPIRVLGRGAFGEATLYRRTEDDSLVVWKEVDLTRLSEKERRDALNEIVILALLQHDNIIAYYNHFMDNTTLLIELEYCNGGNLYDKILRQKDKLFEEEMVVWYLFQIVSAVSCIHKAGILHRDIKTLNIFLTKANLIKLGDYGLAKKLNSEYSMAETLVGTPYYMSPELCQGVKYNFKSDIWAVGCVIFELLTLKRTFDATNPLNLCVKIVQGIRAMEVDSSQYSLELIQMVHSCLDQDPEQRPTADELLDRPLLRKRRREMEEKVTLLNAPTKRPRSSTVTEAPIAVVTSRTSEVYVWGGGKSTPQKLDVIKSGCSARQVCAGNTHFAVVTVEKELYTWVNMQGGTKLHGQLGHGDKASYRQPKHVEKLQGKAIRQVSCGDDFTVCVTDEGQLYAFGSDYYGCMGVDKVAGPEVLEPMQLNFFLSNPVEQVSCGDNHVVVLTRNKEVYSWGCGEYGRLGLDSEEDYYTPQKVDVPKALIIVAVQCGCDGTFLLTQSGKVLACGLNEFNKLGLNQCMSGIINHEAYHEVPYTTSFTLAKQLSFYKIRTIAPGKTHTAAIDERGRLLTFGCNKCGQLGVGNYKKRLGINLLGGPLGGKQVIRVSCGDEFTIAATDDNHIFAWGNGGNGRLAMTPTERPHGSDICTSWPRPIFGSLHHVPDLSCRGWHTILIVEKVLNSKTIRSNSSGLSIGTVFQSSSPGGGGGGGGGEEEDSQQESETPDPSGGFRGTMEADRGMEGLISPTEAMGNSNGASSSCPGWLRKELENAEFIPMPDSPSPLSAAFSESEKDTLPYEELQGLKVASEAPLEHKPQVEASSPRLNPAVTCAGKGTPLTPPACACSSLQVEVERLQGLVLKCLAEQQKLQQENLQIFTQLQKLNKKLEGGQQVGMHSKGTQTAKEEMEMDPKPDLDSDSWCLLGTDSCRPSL
Procedure: as §1, §2

[4] = biological target: T4, CDK9 (Homo sapiens, UniProt P50750)
T4 construct: endogenous in cells; host or cells: K562
T4 sequence (P50750 whole entry): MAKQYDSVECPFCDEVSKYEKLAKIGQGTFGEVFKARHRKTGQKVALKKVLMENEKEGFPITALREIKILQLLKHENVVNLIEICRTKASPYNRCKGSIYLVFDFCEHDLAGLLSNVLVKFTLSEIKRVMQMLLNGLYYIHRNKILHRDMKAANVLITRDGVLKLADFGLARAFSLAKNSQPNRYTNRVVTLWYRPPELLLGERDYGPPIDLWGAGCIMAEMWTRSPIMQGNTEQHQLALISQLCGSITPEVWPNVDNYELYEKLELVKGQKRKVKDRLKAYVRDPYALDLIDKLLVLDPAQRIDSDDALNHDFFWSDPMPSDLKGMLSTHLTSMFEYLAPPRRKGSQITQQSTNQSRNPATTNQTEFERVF
T4 sequence (O60563 whole entry partner): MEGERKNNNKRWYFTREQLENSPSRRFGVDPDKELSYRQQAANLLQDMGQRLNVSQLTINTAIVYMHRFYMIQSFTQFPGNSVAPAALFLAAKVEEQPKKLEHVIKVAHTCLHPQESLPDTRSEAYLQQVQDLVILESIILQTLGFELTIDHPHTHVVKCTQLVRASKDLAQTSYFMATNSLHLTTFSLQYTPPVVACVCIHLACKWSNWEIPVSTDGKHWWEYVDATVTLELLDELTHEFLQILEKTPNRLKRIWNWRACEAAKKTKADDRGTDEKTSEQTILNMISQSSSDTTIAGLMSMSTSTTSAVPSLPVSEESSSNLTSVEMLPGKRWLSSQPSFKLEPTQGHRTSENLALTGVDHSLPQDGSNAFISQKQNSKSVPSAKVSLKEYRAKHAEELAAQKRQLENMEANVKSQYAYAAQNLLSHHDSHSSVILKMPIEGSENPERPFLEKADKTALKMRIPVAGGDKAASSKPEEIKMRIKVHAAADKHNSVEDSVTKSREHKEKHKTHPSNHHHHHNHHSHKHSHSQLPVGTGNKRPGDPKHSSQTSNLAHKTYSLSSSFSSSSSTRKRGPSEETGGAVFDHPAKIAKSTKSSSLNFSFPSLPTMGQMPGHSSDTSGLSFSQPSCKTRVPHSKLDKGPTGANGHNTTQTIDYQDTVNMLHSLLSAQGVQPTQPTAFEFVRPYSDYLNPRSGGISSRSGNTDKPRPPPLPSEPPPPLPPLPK
Procedure: as §1, §2

[5] = biological target: T5, AAK1 (Homo sapiens, UniProt Q2M2I8)
T5 construct: endogenous in cells; host or cells: K562
T5 sequence (Q2M2I8 whole entry): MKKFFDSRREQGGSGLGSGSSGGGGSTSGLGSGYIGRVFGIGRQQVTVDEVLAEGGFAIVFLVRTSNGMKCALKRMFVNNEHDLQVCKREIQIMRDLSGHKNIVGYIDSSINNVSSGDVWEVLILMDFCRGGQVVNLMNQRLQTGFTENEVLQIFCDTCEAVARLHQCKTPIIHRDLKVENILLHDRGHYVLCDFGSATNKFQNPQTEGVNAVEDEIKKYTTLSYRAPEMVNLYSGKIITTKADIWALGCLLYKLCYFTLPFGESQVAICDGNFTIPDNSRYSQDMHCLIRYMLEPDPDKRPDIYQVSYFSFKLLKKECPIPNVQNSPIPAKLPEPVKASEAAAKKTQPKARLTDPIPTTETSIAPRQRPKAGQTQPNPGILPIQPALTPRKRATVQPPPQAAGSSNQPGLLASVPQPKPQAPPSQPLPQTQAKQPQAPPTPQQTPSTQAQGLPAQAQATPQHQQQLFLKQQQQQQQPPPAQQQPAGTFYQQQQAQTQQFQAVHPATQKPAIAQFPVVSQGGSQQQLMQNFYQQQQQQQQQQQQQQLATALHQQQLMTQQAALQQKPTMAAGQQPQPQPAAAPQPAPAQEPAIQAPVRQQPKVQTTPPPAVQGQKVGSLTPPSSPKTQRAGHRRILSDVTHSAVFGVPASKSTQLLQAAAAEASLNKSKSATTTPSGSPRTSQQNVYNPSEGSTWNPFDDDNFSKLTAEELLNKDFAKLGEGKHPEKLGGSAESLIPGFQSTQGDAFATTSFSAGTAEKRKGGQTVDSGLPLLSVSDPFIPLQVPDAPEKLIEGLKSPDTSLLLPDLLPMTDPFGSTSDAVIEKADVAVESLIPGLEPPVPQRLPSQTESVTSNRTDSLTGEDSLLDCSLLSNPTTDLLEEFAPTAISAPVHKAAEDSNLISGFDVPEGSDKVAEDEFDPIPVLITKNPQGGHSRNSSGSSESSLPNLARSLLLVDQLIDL
Procedure: as §1, §2

T1 sequence (P49841 whole entry): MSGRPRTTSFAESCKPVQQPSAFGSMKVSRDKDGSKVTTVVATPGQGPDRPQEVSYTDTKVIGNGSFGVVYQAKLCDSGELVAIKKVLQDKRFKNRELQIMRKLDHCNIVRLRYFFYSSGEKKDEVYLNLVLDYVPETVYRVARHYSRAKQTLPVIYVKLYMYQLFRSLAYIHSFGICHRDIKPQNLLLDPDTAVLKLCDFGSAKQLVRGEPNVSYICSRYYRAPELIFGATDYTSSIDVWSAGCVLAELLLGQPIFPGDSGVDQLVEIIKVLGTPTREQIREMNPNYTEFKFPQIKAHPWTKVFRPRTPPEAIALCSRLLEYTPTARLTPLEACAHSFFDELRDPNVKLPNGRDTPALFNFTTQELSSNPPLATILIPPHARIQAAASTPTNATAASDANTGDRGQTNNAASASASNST

`N#CCc1ccc(Nc2nc(NCCCN)cc(Nc3cc(C4CC4)[nH]n3)n2)cc1` [KAM] was tested. Which “median Log10 fold change” value ([1]; 0.001 uM KAM) did it give?
Its value is 0.01354.

And the “median Log10 fold change” value ([1]; 0.01 uM KAM)?
The value was -0.16.

What about the “median Log10 fold change” value ([1]; 0.1 uM KAM) of the same molecule?
Its value is -0.4584.

What about the “median Log10 fold change” value ([1]; 1 uM KAM) of the same molecule?
The value was -0.606.

What about the “median Log10 fold change” value ([1]; 10 uM KAM) of the same molecule?
The value was -0.568.

What about the IC50 ([1]; GSK3B, KAM-based affinity matrix, K562 lysates, read-out: RB50 (the source's name)) of the same molecule?
The IC50 was 45 nM.

And the “median Log10 fold change” value ([2]; 0.001 uM KAM)?
Its value is 0.002359.

And the “median Log10 fold change” value ([2]; 0.01 uM KAM)?
The value was -0.1849.

What about the “median Log10 fold change” value ([2]; 0.1 uM KAM) of the same molecule?
The value was -0.4791.

What about the “median Log10 fold change” value ([2]; 1 uM KAM) of the same molecule?
Its value is -0.5469.

And the “median Log10 fold change” value ([2]; 10 uM KAM)?
Its value is -0.4904.

What about the IC50 ([2]; GSK3A, KAM-based affinity matrix, K562 lysates, read-out: RB50 (the source's name)) of the same molecule?
The IC50 was 37 nM.

And the “median Log10 fold change” value ([3]; 0.001 uM KAM)?
The value was 0.04943.

And the “median Log10 fold change” value ([3]; 0.01 uM KAM)?
The value was -0.06045.

And the “median Log10 fold change” value ([3]; 0.1 uM KAM)?
Its value is -0.3899.

And the “median Log10 fold change” value ([3]; 1 uM KAM)?
Its value is -0.6054.

And the “median Log10 fold change” value ([3]; 10 uM KAM)?
Its value is -0.6016.

What about the IC50 ([3]; NEK9, KAM-based affinity matrix, K562 lysates, read-out: RB50 (the source's name)) of the same molecule?
The IC50 was 86 nM.

And the “median Log10 fold change” value ([4]; 0.001 uM KAM)?
Its value is -0.01348.

What about the “median Log10 fold change” value ([4]; 0.01 uM KAM) of the same molecule?
The value was -0.02502.

What about the “median Log10 fold change” value ([4]; 0.1 uM KAM) of the same molecule?
Its value is -0.3345.

And the “median Log10 fold change” value ([4]; 1 uM KAM)?
The value was -0.6226.

And the “median Log10 fold change” value ([4]; 10 uM KAM)?
Its value is -0.7136.

What about the IC50 ([4]; CDK9, KAM-based affinity matrix, K562 lysates, read-out: RB50 (the source's name)) of the same molecule?
Its IC50 is 112 nM.

And the “median Log10 fold change” value ([5]; 0.001 uM KAM)?
Its value is -0.03432.

What about the “median Log10 fold change” value ([5]; 0.01 uM KAM) of the same molecule?
The value was -0.41.

What about the “median Log10 fold change” value ([5]; 0.1 uM KAM) of the same molecule?
The value was -0.6175.

And the “median Log10 fold change” value ([5]; 1 uM KAM)?
Its value is -0.6778.

What about the “median Log10 fold change” value ([5]; 10 uM KAM) of the same molecule?
The value was -0.7219.

What about the IC50 ([5]; AAK1, KAM-based affinity matrix, K562 lysates, read-out: RB50 (the source's name)) of the same molecule?
The IC50 was 8 nM.
